# Source: PubChem BioAssay AID977614 (Broad Institute, 2014)
# Active and inactive are the calls of the source.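 Rule for the calls: active = parasite count per well reduced by over 3 SD from the mean, with host cell number above 80% of untreated; inactive = the rest.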
# Test system: L. donovani amastigotes in THP-1 macrophages, DAPI imaging, 72 h
# Experiment: L. donovani intracellular amastigote growth inhibitors, imaging, THP-1 host macrophages, single concentration (AID 977614);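 note: signal is the parasite per host cell ratio from DAPI stained kinetoplasts and nuclei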
row,SMILES,AC50
1,C/C=C/c1ccc([C@@H]2[C@H](CO)N[C@H]2CN(C(=O)c2ccccc2F)C(C)C)cc1,> 10 µM (inactive)
2,OC[C@H]1N[C@@H](CNCC2CCC2)[C@@H]1c1ccc(C2=CCCCC2)cc1,> 10 µM (inactive)
3,N#Cc1cccc(-c2ccc([C@H]3[C@@H](CO)N[C@@H]3CNC(=O)C3CCC3)cc2)c1,> 10 µM (inactive)
4,C[C@H]1CN([C@@H](C)CO)C(=O)CCCn2nncc2CO[C@H]1CN(C)C(=O)c1ccc(N2CCN(C)CC2)cc1,> 10 µM (inactive)
5,CN(C[C@@H]1[C@@H](c2ccccc2)[C@@H](CO)N1Cc1ccccn1)S(C)(=O)=O,> 10 µM (inactive)
6,COc1cccc(C(=O)N2C[C@H]3[C@@H](c4ccccc42)[C@@H](CO)N3C(=O)c2cccc(F)c2)c1,> 10 µM (inactive)
7,O=C(Nc1cccc(Cl)c1)N1C[C@H]2[C@@H](c3ccccc31)[C@H](CO)N2Cc1cccnc1,> 10 µM (inactive)
8,COCC(=O)N1[C@H](CO)[C@@H]2c3ccccc3N(C)C[C@@H]21,> 10 µM (inactive)
9,CCCNC(=O)N1C[C@H]2[C@@H](c3ccccc31)[C@@H](CO)N2Cc1cccc(OC)c1,> 10 µM (inactive)
10,Cc1cccc(S(=O)(=O)N2C[C@@H]3[C@H](c4ccccc42)[C@H](CO)N3Cc2ccc3c(c2)OCO3)c1,> 10 µM (inactive)
11,COCC(=O)NC[C@@H]1[C@H](c2ccccc2)[C@H](CO)N1C(=O)c1ccccc1,> 10 µM (inactive)
12,C[C@@H]1CN([C@@H](C)CO)C(=O)CCCn2cc(nn2)CO[C@@H]1CN(C)S(=O)(=O)c1cccc(C#N)c1,> 10 µM (inactive)
13,O=S(=O)(c1ccc(F)cc1)N1C[C@@H]2[C@H](c3ccccc31)[C@@H](CO)N2Cc1ccccc1Cl,> 10 µM (inactive)
14,COc1ccccc1CN1[C@H](CO)[C@H]2c3ccccc3N(C(=O)C3CCOCC3)C[C@H]21,> 10 µM (inactive)
15,CNC[C@@H]1OCc2cn(nn2)CCCC(=O)N([C@@H](C)CO)C[C@H]1C,> 10 µM (inactive)
16,C[C@H]1CN([C@@H](C)CO)C(=O)CCCn2cc(nn2)CO[C@H]1CN(C)Cc1ccccc1,> 10 µM (inactive)
17,O=C(Cc1ccccc1)NC[C@H]1N[C@H](CO)[C@@H]1c1ccc(C2=CCCC2)cc1,> 10 µM (inactive)
18,O=C(NC[C@@H]1[C@@H](c2ccccc2)[C@H](CO)N1Cc1ccccn1)C1CCCC1,> 10 µM (inactive)
19,CN1[C@@H]2CN(C(=O)Nc3cc(F)ccc3F)c3ccccc3[C@@H]2[C@@H]1CO,> 10 µM (inactive)
20,C[C@H]1CN([C@@H](C)CO)C(=O)CCCn2nncc2CO[C@@H]1CN(C)S(=O)(=O)c1ccccc1C#N,> 10 µM (inactive)
21,C/C=C/c1ccc([C@H]2[C@@H](CO)N(C(C)=O)[C@H]2CNC(=O)c2ccccc2)cc1,> 10 µM (inactive)
22,C[C@@H]1CN([C@@H](C)CO)C(=O)CCCn2nncc2CO[C@H]1CN(C)C(=O)c1ccc2ccn(C)c2c1,> 10 µM (inactive)
23,CC(=O)N1[C@H](CN(C)S(=O)(=O)c2ccccc2)[C@H](c2ccccc2)[C@@H]1CO,> 10 µM (inactive)
24,C[C@H]1CN([C@@H](C)CO)C(=O)CCCn2cc(nn2)CO[C@@H]1CN(C)C(=O)c1ccc(N2CCN(C)CC2)cc1,> 10 µM (inactive)
25,CC(C)N(C[C@@H]1[C@@H](c2ccccc2)[C@@H](CO)N1S(C)(=O)=O)C(=O)CN(C)C,> 10 µM (inactive)
26,COc1ccc(NC(=O)N2C[C@H]3[C@@H](c4ccccc42)[C@@H](CO)N3Cc2ccccn2)cc1,> 10 µM (inactive)

row,SMILES,AC50
1,COCCN(C[C@H]1[C@H](c2ccccc2)[C@@H](CO)N1C(C)=O)C(=O)c1cccnc1,> 10 µM (inactive)
2,C[C@@H]1CN([C@@H](C)CO)C(=O)CCCn2nncc2CO[C@H]1CN(C)Cc1ccc2cccnc2c1,> 10 µM (inactive)
3,C[C@@H]1CN([C@H](C)CO)C(=O)CCCn2nncc2CO[C@@H]1CN(C)C(=O)c1ccc(N2CCN(C)CC2)cc1,> 10 µM (inactive)
4,COCC(=O)NC[C@H]1[C@H](c2ccccc2)[C@H](CO)N1C(=O)c1ccccc1,> 10 µM (inactive)
5,C[C@@H]1CN([C@@H](C)CO)C(=O)CCCn2nncc2CO[C@@H]1CN(C)C(=O)Nc1ccc2c(c1)OCCO2,> 10 µM (inactive)
6,O=C(C1CCOCC1)N1C[C@@H]2[C@H](c3ccccc31)[C@@H](CO)N2C(=O)Nc1ccccc1F,> 10 µM (inactive)
7,C[C@@H]1CN([C@H](C)CO)C(=O)CCCn2nncc2CO[C@H]1CN(C)S(=O)(=O)c1ccc2c(c1)OCCCO2,> 10 µM (inactive)
8,CC(=O)N1[C@H](CNC(=O)CN(C)C)[C@H](c2ccc(C3=CCCCC3)cc2)[C@@H]1CO,> 10 µM (inactive)
9,CCCNC(=O)N1C[C@@H]2[C@H](c3ccccc31)[C@@H](CO)N2C(=O)Nc1ccccc1F,> 10 µM (inactive)
10,CC(C)NC(=O)N1[C@@H](CO)[C@@H]2c3ccccc3N(C)C[C@@H]21,> 10 µM (inactive)
11,CC(=O)N1[C@H](CN(CC(C)C)C(=O)c2ccccn2)[C@@H](c2ccccc2)[C@@H]1CO,> 10 µM (inactive)
12,COCC(=O)N(C)C[C@H]1[C@@H](c2ccccc2)[C@H](CO)N1C(=O)Cc1ccncc1,> 10 µM (inactive)
13,CN1C[C@@H]2[C@H](c3ccccc31)[C@H](CO)N2C(=O)C1CCOCC1,> 10 µM (inactive)
14,COc1ccccc1CN1[C@H](CO)[C@@H]2c3ccccc3N(C(=O)c3cccnc3)C[C@@H]21,> 10 µM (inactive)
15,C[C@@H]1CN([C@H](C)CO)C(=O)CCCn2nncc2CO[C@H]1CN(C)Cc1ccc2c(c1)OCCN2C,> 10 µM (inactive)
16,COc1ccc(NC(=O)N(C)C[C@H]2OCc3cnnn3CCCC(=O)N([C@@H](C)CO)C[C@H]2C)c(OC)c1,> 10 µM (inactive)
17,C[C@H](CO)N1C[C@H](C)[C@H](CN(C)S(=O)(=O)c2cn(C)cn2)OCc2cnnn2CCCC1=O,> 10 µM (inactive)
18,CC(=O)N1[C@H](CO)[C@H](c2ccccc2)[C@@H]1CN(C)S(=O)(=O)c1ccccc1,> 10 µM (inactive)
19,CCCNC(=O)N(C)C[C@H]1[C@H](c2ccccc2)[C@@H](CO)N1C(=O)c1ccccc1,> 10 µM (inactive)
20,C[C@H](CO)N1C[C@H](C)[C@H](CN(C)S(=O)(=O)c2cccc(C#N)c2)OCc2cn(nn2)CCCC1=O,> 10 µM (inactive)
21,CCCNC(=O)N1C[C@@H]2[C@H](c3ccccc31)[C@@H](CO)N2Cc1cccc(OC)c1,> 10 µM (inactive)
22,O=C(CN1CCOCC1)N1[C@@H](CO)[C@@H]2c3ccccc3NC[C@@H]21,> 10 µM (inactive)
23,COCC(=O)N1[C@@H]2CN(C(=O)Nc3ccccc3Cl)c3ccccc3[C@@H]2[C@@H]1CO,> 10 µM (inactive)
24,Cc1noc(C)c1NC(=O)N(C)C[C@H]1OCc2cn(nn2)CCCC(=O)N([C@H](C)CO)C[C@@H]1C,> 10 µM (inactive)
25,CC(C)N(C[C@H]1N[C@H](CO)[C@H]1c1ccccc1)S(=O)(=O)c1ccccc1,> 10 µM (inactive)
26,O=C(NC[C@H]1[C@@H](c2ccccc2)[C@H](CO)N1C(=O)Cc1ccncc1)C1CCC1,> 10 µM (inactive)

row,SMILES,AC50
1,O=S(=O)(c1ccccc1)N1C[C@H]2[C@@H](c3ccccc31)[C@@H](CO)N2Cc1ccccn1,> 10 µM (inactive)
2,C[C@H]1CN([C@@H](C)CO)C(=O)CCCn2cc(nn2)CO[C@@H]1CN(C)C(=O)Nc1ccc2c(c1)OCO2,> 10 µM (inactive)
3,CC(=O)N1[C@@H](CO)[C@@H]2c3ccccc3N(C(=O)c3ccc(F)cc3)C[C@@H]21,> 10 µM (inactive)
4,CCNC[C@@H]1[C@@H](c2ccc(-c3ccc(F)cc3)cc2)[C@@H](CO)N1C(=O)C1CC1,> 10 µM (inactive)
5,C/C=C/c1ccc([C@H]2[C@H](CO)N(C(C)=O)[C@H]2CN(CC)C(=O)CN(C)C)cc1,> 10 µM (inactive)
6,COCC(=O)N(C[C@H]1[C@H](c2ccccc2)[C@H](CO)N1C(=O)NC(C)C)C(C)C,> 10 µM (inactive)
7,CC(=O)N1[C@H](CO)[C@H](c2ccc(C3=CCCCC3)cc2)[C@@H]1CNC(=O)CN(C)C,> 10 µM (inactive)
8,CN1[C@@H]2CNc3ccccc3[C@@H]2[C@@H]1CO,> 10 µM (inactive)
9,C[C@H]1CN([C@@H](C)CO)C(=O)CCCn2cc(nn2)CO[C@H]1CN(C)C(=O)Oc1ccc2ccccc2c1,> 10 µM (inactive)
10,C[C@@H]1CN([C@@H](C)CO)C(=O)CCCn2nncc2CO[C@@H]1CN(C)S(=O)(=O)c1ccc2c(c1)OCCCO2,> 10 µM (inactive)
11,O=C(c1ccccn1)N1C[C@@H]2[C@H](c3ccccc31)[C@H](CO)N2C(=O)C1CCCCC1,> 10 µM (inactive)
12,CN(C[C@@H]1N[C@H](CO)[C@@H]1c1ccc(-c2cccc(F)c2)cc1)C(=O)CC1CC1,> 10 µM (inactive)
13,CC(=O)N1[C@@H](CO)[C@H](c2ccccc2)[C@@H]1CN(C)S(=O)(=O)c1ccccc1,> 10 µM (inactive)
14,C[C@@H]1CN([C@@H](C)CO)C(=O)CCCn2cc(nn2)CO[C@@H]1CN(C)C(=O)Nc1cccc(C(F)(F)F)c1,> 10 µM (inactive)
15,COc1ccc(C(=O)N2C[C@H]3[C@@H](c4ccccc42)[C@H](CO)N3C(=O)NC(C)C)cc1,> 10 µM (inactive)
16,OC[C@H]1[C@@H]2c3ccccc3NC[C@@H]2N1CC1CCOCC1,> 10 µM (inactive)
17,C[C@H](CO)N1C[C@H](C)[C@@H](CN(C)S(=O)(=O)c2cn(C)cn2)OCc2cnnn2CCCC1=O,> 10 µM (inactive)
18,CCS(=O)(=O)N(C)C[C@@H]1N[C@H](CO)[C@@H]1c1ccc(C2=CCCCC2)cc1,> 10 µM (inactive)
19,Cc1noc(C)c1S(=O)(=O)N(C)C[C@@H]1OCc2cnnn2CCCC(=O)N([C@@H](C)CO)C[C@H]1C,> 10 µM (inactive)
20,O=C(c1ccc2c(c1)OCO2)N1C[C@@H]2[C@H](c3ccccc31)[C@H](CO)N2C(=O)CC1CC1,> 10 µM (inactive)
21,C[C@@H]1CN([C@@H](C)CO)C(=O)CCCn2nncc2CO[C@@H]1CN(C)Cc1ccc2c(c1)OCCN2C,> 10 µM (inactive)
22,Cc1noc(C)c1S(=O)(=O)N(C)C[C@@H]1OCc2cn(nn2)CCCC(=O)N([C@H](C)CO)C[C@@H]1C,> 10 µM (inactive)
23,C[C@@H]1CN([C@H](C)CO)C(=O)CCCn2nncc2CO[C@@H]1CN(C)C(=O)Oc1cccc2ccccc12,> 10 µM (inactive)
24,C/C=C/c1ccc([C@H]2[C@@H](CO)N(c3nc(C)c(C)s3)[C@@H]2CNCC(C)C)cc1,> 10 µM (inactive)
